These are literature values, as cited in patent publication US20040147564A1, “Combinations of glimepiride and the thiazolidinedione for treatment of diabetes” (priority 2003, published 2004).

Test in data set [1]: not given
The source holds these as a separate data set.

Test in data set [2]: not given
The source holds these as a separate data set.

`CN(CCOc1ccc(CC2SC(=O)NC2=O)cc1)c1ccccn1` (stereo not drawn) [Rosiglitazone, rosiglitazone]: the “Solubility in buffered aqueous solution” value (pH of 2.3) was “readily soluble”.
Turning to `CCC1=C(C)CN(C(=O)NCCc2ccc(S(=O)(=O)NC(=O)N[C@H]3CC[C@H](C)CC3)cc2)C1=O` [glimepiride, 1-[[p-[2-(3-ethyl-4-methyl-2-oxo-3-pyrroline-1-carboxamido)ethyl]phenyl]sulfonyl]-3-(trans-4-methylcyclohexyl)urea], the Solubility in water (at 25° C.) is not above 100 µg/mL. Moreover, the Elimination half-life in data set [1] (at steady state after oral administration) is 5 to 8 h. Also, the Terminal half-life entry in data set [1] (in vivo) is reported as “more than 5 hours”. In addition, in data set [2] (human, in vivo), the “Reduction of absolute HbA1c levels” value is given as 1-2%. Moreover, the “Increase of plasma insulin levels” value in data set [2] (patients with type 2 diabetes) is not above 50%.
